{
  "source": "PubChem BioAssay AID1963451",
  "about": "(Molecular Pharmacology Branch, DTP, NCI, 2024);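 note: spheroids exposed to compounds for 7 days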;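 for viability, T/C: 100% = DMSO vehicle control wells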",
  "system": "521955-158-R6-J3-PDC complex spheroid growth, % test/control",
  "assay": "Anticancer human tumor 521955-158-R6-J3-PDC patient-derived pancreatic carcinoma cell line growth inhibition [Asc]",
  "conditions": "for viability, T/C: stronger effect = lower value",
  "method": "Multicellular complex tumor spheroid response to apoptosis pathway targeting inhibitors Alrizomadlin, Pelcitoclax, and Dasminapant in combination with a variety of drugs and investigational agents in selected tumor cell lines\nThe MDM2 inhibitor alrizomadlin, the Bcl-2/Bcl-xL inhibitor pelcitoclax, and the IAPs inhibitor dasminapant were evaluated both individually and in combination with standard of care and investigational anticancer small molecules within a complex spheroid model of solid tumors. . Complex spheroids include a stromal component modeled by human endothelial cells (HUVEC) and fibroblasts modeled by human mesenchymal stem cells (MSCs). The concentration ranges selected for each drug and investigational agent were based upon clinically achievable concentrations if the clinical Cmax of the agent was known.\nCompounds. The drugs and investigational agents: alrizomadlin (APG-115; NSC831270), pelcitoclax (APG-1252; NSC835773), dasminapant (APG-1387;NSC834197), TAK-243 (NSC785004), copanlisib (NSC809693), olaparib (NSC753686), talazoparib (NSC767125), cobimetinib (NSC 768068), eltanexor (KPT-8602, NSC 794443), abemaciclib (NSC 768073), sotorasib (NSC818433), adagrasib (NSC 831453), MRTX-1133 (NSC 836407), Iadademestat (ORY1001, NSC 806812), and RMC-4630 (NSC839698), were obtained from the NCI Developmental Therapeutics Program Chemical Repository. The FDA-approved anticancer drug set is available from the Developmental Therapeutics Program at https://dtp.cancer.gov/organization/dscb/obtaining/available plates.htm. […] The stock solutions were prepared in dimethyl sulfoxide (DMSO, Sigma-Aldrich, St. Louis, MO, cat. D2650) at 800-fold the tested concentration and stored at -70 degrees C prior to their use. All drugs and investigational agents were tested over a range starting from a high concentration at or near the clinical Cmax and decreasing in half-log increments. If the clinical Cmax for an agent had not been determined, the highest concentration tested was 10 microM.\nThe patient-derived cancer (PDC) cell lines include five colon adenocarcinomas: 186277-243-T-J2-PDC, 616215-338-R-J1-PDC, 439559-082-T-J2-PDC, 463943-066-T-J2-PDC, and 519858-162-T-J1-PDC; three pancreatic carcinomas: 323965-272-R-J2-PDC, 521955-158-R6-J3-PDC, and 521955-158-R2-J5-PDC; two uterine sarcomas: 327498-152-R-J2-PDC and 993429-296-R-J1-PDC; two rhabdomyosarcomas: 755483-174-R-J1-PDC and 772245-204-R-J1-PDC; two soft tissue sarcomas: 126254-015-R-J1-PDC and 494315-158-R-J1-PDC; two malignant fibrous histiocytomas: 317291-083-R-J1-PDC and 596521-263-R-J1-PDC; two breast carcinomas: 171881-019-R-J1-PDC and 885512-296-R-J2-PDC; and one ovarian carcinoma: 6556581-035-R-J-PDC were obtained from the NCI PDMR, (https://pdmr.cancer.gov). The established cell lines HSSY-2 synovial sarcoma (RRID:CVCL 8719), SYO-1 synovial sarcoma (RRID:CVCL_7146), MPNST malignant peripheral neural sheath tumor were obtained from the Sloan Kettering Institute. The following established cell lines were purchased from the American Type Culture Collection (ATCC, Manassas, VA), Sor the received from the NCI repository:, PANC-1 pancreatic carcinoma (CRL-1469, RRID:CVCL_0480), OVCAR-5 ovarian carcinoma (RRID:CVCL_1628), OVCAR-8 ovarian carcinoma (RRID:CVCL_1629), , MCF-7 breast carcinoma (CRL-12584, RRID:CVCL_0031), MDA-MB-231 breast carcinoma (CRL-12532, RRID:CVCL_0062), NCI-H1876 small cell lung carcinoma (CRL-5902, RRID:CVCL_1503), NCI-H510A small cell lung carcinoma (HTB-184, RRID:CVCL_1565), NCI-H1417 (CRL-5869, RRID:CVCL_1469), and NCI-H196 small cell lung carcinoma (CRL-5823, RRID:CVCL_1509). Dr. Peter Houghton (Greehey Children's Cancer Research Institute, University of Texas Health Science Center, San Antonio, TX) provided Rh-18 rhabdomyosarcoma (RRID:CVCL_1659). Pooled donor human umbilical vein endothelial cells (HUVEC, Lonza, cat. CC-2519) and human mesenchymal stem cells (hMSC, Lonza, cat. PT-2501) were purchased from Lonza (Walkersville, MD).\nCell Culture. […]",
  "data": [
    {"smiles": "CNC(C)C(=O)NC1CN(S(=O)(=O)c2cccc(S(=O)(=O)N3CCC4CCC(C(=O)NC(c5ccccc5)c5ccccc5)N4C(=O)C(NC(=O)C(C)NC)C3)c2)CCC2CCC(C(=O)NC(c3ccccc3)c3ccccc3)N2C1=O", "note": "(centres undefined)", "values": [
      {"measurement": "IC50", "setting": "compound alone, run of 11/15/2022", "value": "> 1", "unit": "µM"},
      {"measurement": "IC50", "setting": "curve of compound", "value": "> 1", "unit": "µM"}
    ]},
    {"smiles": "O=C(c1cc(Cc2n[nH]c(=O)c3ccccc23)ccc1F)N1CCN(C(=O)C2CC2)CC1", "note": "+ CCN1C(C(=O)NC23CCC(C(=O)O)(CC2)CC3)C(c2cccc(Cl)c2F)C2(C(=O)Nc3cc(Cl)ccc32)C12CCCCC2", "values": [
      {"measurement": "IC50", "setting": "curve of first compound, second compound 0.00949 µM", "value": "> 10", "unit": "µM"},
      {"measurement": "IC50", "setting": "curve of first compound, second compound 0.03 µM", "value": "> 10", "unit": "µM"},
      {"measurement": "IC50", "setting": "curve of first compound, second compound 0.0949 µM", "value": "> 10", "unit": "µM"},
      {"measurement": "IC50", "setting": "curve of first compound, second compound 0.3 µM", "value": "> 10", "unit": "µM"},
      {"measurement": "IC50", "setting": "curve of first compound, second compound 0.949 µM", "value": "> 10", "unit": "µM"},
      {"measurement": "IC50", "setting": "curve of first compound, second compound 3 µM", "value": "> 10", "unit": "µM"},
      {"measurement": "viability, T/C", "setting": "second compound 0.00949 µM, first compound 0.0316 µM", "value": 109, "unit": "%"},
      {"measurement": "viability, T/C", "setting": "second compound 0.00949 µM, first compound 0.1 µM", "value": 98.4, "unit": "%"},
      {"measurement": "viability, T/C", "setting": "second compound 0.00949 µM, first compound 0.316 µM", "value": 92.4, "unit": "%"},
      {"measurement": "viability, T/C", "setting": "second compound 0.00949 µM, first compound 1 µM", "value": 83.7, "unit": "%"},
      {"measurement": "viability, T/C", "setting": "second compound 0.00949 µM, first compound 3.16 µM", "value": 83.4, "unit": "%"},
      {"measurement": "viability, T/C", "setting": "second compound 0.00949 µM, first compound 10 µM", "value": 89.7, "unit": "%"},
      {"measurement": "viability, T/C", "setting": "second compound 0.03 µM, first compound 0.0316 µM", "value": 127, "unit": "%"},
      {"measurement": "viability, T/C", "setting": "second compound 0.03 µM, first compound 0.1 µM", "value": 98.7, "unit": "%"},
      {"measurement": "viability, T/C", "setting": "second compound 0.03 µM, first compound 0.316 µM", "value": 94.2, "unit": "%"},
      {"measurement": "viability, T/C", "setting": "second compound 0.03 µM, first compound 1 µM", "value": 108, "unit": "%"},
      {"measurement": "viability, T/C", "setting": "second compound 0.03 µM, first compound 3.16 µM", "value": 82, "unit": "%"},
      {"measurement": "viability, T/C", "setting": "second compound 0.03 µM, first compound 10 µM", "value": 88.8, "unit": "%"},
      {"measurement": "viability, T/C", "setting": "second compound 0.0949 µM, first compound 0.0316 µM", "value": 106, "unit": "%"},
      {"measurement": "viability, T/C", "setting": "second compound 0.0949 µM, first compound 0.1 µM", "value": 98.6, "unit": "%"},
      {"measurement": "viability, T/C", "setting": "second compound 0.0949 µM, first compound 0.316 µM", "value": 88.6, "unit": "%"},
      {"measurement": "viability, T/C", "setting": "second compound 0.0949 µM, first compound 1 µM", "value": 101, "unit": "%"},
      {"measurement": "viability, T/C", "setting": "second compound 0.0949 µM, first compound 3.16 µM", "value": 96.4, "unit": "%"},
      {"measurement": "viability, T/C", "setting": "second compound 0.0949 µM, first compound 10 µM", "value": 89.8, "unit": "%"},
      {"measurement": "viability, T/C", "setting": "second compound 0.3 µM, first compound 0.0316 µM", "value": 113, "unit": "%"},
      {"measurement": "viability, T/C", "setting": "second compound 0.3 µM, first compound 0.1 µM", "value": 110, "unit": "%"},
      {"measurement": "viability, T/C", "setting": "second compound 0.3 µM, first compound 0.316 µM", "value": 135, "unit": "%"},
      {"measurement": "viability, T/C", "setting": "second compound 0.3 µM, first compound 1 µM", "value": 90.6, "unit": "%"},
      {"measurement": "viability, T/C", "setting": "second compound 0.3 µM, first compound 3.16 µM", "value": 89.3, "unit": "%"},
      {"measurement": "viability, T/C", "setting": "second compound 0.3 µM, first compound 10 µM", "value": 104, "unit": "%"},
      {"measurement": "viability, T/C", "setting": "second compound 0.949 µM, first compound 0.0316 µM", "value": 113, "unit": "%"},
      {"measurement": "viability, T/C", "setting": "second compound 0.949 µM, first compound 0.1 µM", "value": 114, "unit": "%"},
      {"measurement": "viability, T/C", "setting": "second compound 0.949 µM, first compound 0.316 µM", "value": 104, "unit": "%"},
      {"measurement": "viability, T/C", "setting": "second compound 0.949 µM, first compound 1 µM", "value": 92.1, "unit": "%"},
      {"measurement": "viability, T/C", "setting": "second compound 0.949 µM, first compound 3.16 µM", "value": 89.2, "unit": "%"},
      {"measurement": "viability, T/C", "setting": "second compound 0.949 µM, first compound 10 µM", "value": 89, "unit": "%"},
      {"measurement": "viability, T/C", "setting": "second compound 3 µM, first compound 0.0316 µM", "value": 90.8, "unit": "%"},
      {"measurement": "viability, T/C", "setting": "second compound 3 µM, first compound 0.1 µM", "value": 100, "unit": "%"},
      {"measurement": "viability, T/C", "setting": "second compound 3 µM, first compound 0.316 µM", "value": 96.5, "unit": "%"},
      {"measurement": "viability, T/C", "setting": "second compound 3 µM, first compound 1 µM", "value": 94.4, "unit": "%"},
      {"measurement": "viability, T/C", "setting": "second compound 3 µM, first compound 3.16 µM", "value": 104, "unit": "%"},
      {"measurement": "viability, T/C", "setting": "second compound 3 µM, first compound 10 µM", "value": 101, "unit": "%"}
    ]}
  ]
}
